The text below walks through data of patent US8791084B2, “Inhibition of SOX9 function in the treatment of proteoglycan-associated pathophysiological conditions” (Robarts Research Institute, priority 2006, dated 2014).

Data set [1] concerns SOX9. As to the kind of experiment: SOX9 knock-down by anti-SOX9 siRNA transfection of primary astrocytes, mRNA levels by Q-PCR. Format: cell-based, rat. How it is done: (§1) Primary astrocyte cultures were prepared from newborn rats at postnatal day 1 (P1) (Wilson and Dixon 1989). The upper portion of the skull was removed and the meninges carefully dissected away to avoid contamination of the culture with fibroblasts. The neocortices were removed, placed into serum-free advanced D-MEM (Dulbecco's Modified Eagle Medium, Invitrogen), homogenized by pipeting and gravity-filtered through 70 μm cell strainer (Falcon). The cells were plated onto 6-well dishes (Falcon). […] Cytokine treatments of primary astrocytes with PDGF, IL-6, TNFα and TGFβ2 (R and D systems) and bFGF2 (Invitrogen) were carried out for 12 hours. RNA was extracted using the Qiagen (Germany) RNA-easy kit following manufacturer's specifications. The transfections of primary astrocytes with SiRNAs and the CMV-SOX9 expression construct were conducted using Lipofectamine 2000 (Invitrogen) according to manufacturer's specifications in 6-well dishes (Falcon). The siRNA ([…]) (SEQ ID No. 4) was used at a concentration of 150 pM. The universal negative control scrambled SiRNA was used according to manufacturer's (Invitrogen) specifications. Transfection efficiencies with a fluorescently-tagged control SiRNA was 35%-40%. The CMV-SOX9 construct has previously been described (Foster et al. 1994; Lefebvre et al. 1997) and plasmid transfection efficiency estimated by cotransfection with a CMV-GFP construct was approximately 10%.
(§2) First strand cDNA was synthesized from 1 μg RNA per condition (cell culture or animal tissue) using the High Capacity cDNA Archive Kit according to the manufacturer protocol (Applied Biosystems Foster City Calif.). The primer probe sets, optical adhesive covers, and PCR plates were purchased from Applied Biosystems (Foster City, Calif.). The probes were labeled with 5′ FAM and with 3′TAMRA as quencher with the exception of the ribosomal probe, which was labeled with 5′ VIC. For Taq Man assays the thermal cycler conditions were 10 minutes at 95° C. followed by 40 cycles of 30 seconds at 95° C. followed by 30 seconds at 60° C. A standard curve of cycle thresholds using cDNA serial dilutions was established and used to calculate abundance of each target mRNA. Technical triplicates and at least biological triplicates were run on all conditions tested. Values were normalized to the amounts of 18S mRNA as determined by Q-PCR. The data were analyzed by a two way ANOVA following by a Bonferroni test with Dunn's correction for multiple comparisons or Dunnet's procedure when comparisons were made with a single variable (control). Student's t-test was used when only two groups were compared.
To test the effect of SOX9 knock-down on the expression of XT-I, XT-II and C4ST, a control (scrambled) small interfering RNA (SiRNA) or an anti-SOX9 SiRNA was transfected into primary astrocytes and mRNA levels of SOX9, XT-I, XT-II and C4ST were assayed by Q-PCR 12 hours later. […] (FIG. 7 E, F).

The test system of data set [2] is rat primary astrocyte cultures. The data set can be described thus: Cytokine treatment of primary astrocyte cultures, mRNA levels by Q-PCR. Format: cell-based. As to conditions: for XT-II mRNA: 6 week-old primary astrocyte cultures, 1, 10 or 100 ng/ml cytokine, 12 hour exposure, relative to untreated cultures; for SOX9 mRNA levels: primary astrocyte cultures after cytokine treatments; for Fibronectin expression / Laminin expression: primary astrocyte cultures following cytokine treatments. How it is done: as §1, §2
To evaluate TGFβ2, PDGF and IL-6 as candidate XT-I, XT-II and C4ST transcriptional regulators, rat primary astrocyte cultures were exposed to 1, 10 or 100 ng/ml of each cytokine. After a 12 hour cytokine exposure, XT-I, XT-II and C4ST mRNA levels were measured relative to untreated cultures by Q-PCR. Six week-old cultures were used as, by this time point, the astrocytes are quiescent (as evidenced by reduced GFAP expression) and baseline levels of XT-I, XT-II and C4ST genes are low.
To test whether SOX9 regulates expression of XT-I, XT-II and C4ST in vitro, primary astrocytes were transfected with a SOX9 expression construct and assessed for CBG mRNA levels by Q-PCR 48 hours later. […] The levels of fibronectin and laminin mRNA in these same cultures were unaffected by SOX9 over-expression. To determine whether IL-6, PDGF and TGF[…]2 might increase XT-I, XT-II and C4ST gene expression by up-regulating SOX9 expression, the expression levels of SOX9 mRNA were assayed after these cytokine treatments in primary astrocyte cultures.

In data set [3] the test system is rat primary astrocyte cultures. As to the kind of experiment: Slot blot analysis of CSPG protein (CS56) in cytokine-treated primary astrocytes. It counts as cell-based. How it is done:
as §1
Tissue and cell samples were lysed in RIPA buffer [20 mM, Tris-HCl (pH 7.6), 150 mM NaCl, 0.5% sodium deoxycholate, 1% Triton X-100, 0.1% SDS]. […] Immunoreactive bands were scanned by an imaging densitometer (BioRad GF-700 Imaging Densitometer, Mississauga, ON); and results were quantified using Multi-Analist software (BioRad, Mississauga, ON). […]
To evaluate TGFβ2, PDGF and IL-6 as candidate XT-I, XT-II and C4ST transcriptional regulators, rat primary astrocyte cultures were exposed to 1, 10 or 100 ng/ml of each cytokine. After a 12 hour cytokine exposure, XT-I, XT-II and C4ST mRNA levels were measured relative to untreated cultures by Q-PCR. […]

The subject of data set [4] is SOX9. The data set can be described thus: SOX9 luciferase reporter construct assay in primary astrocytes. Format: cell-based, rat. An excerpt: Astrocytes, such as wither primary astrocytes (rodent or human) or an established astrocyte cell line designated as Neu7 (Fok-Seang, Smith-Thomas et al. 1995), were transfected with a SOX9 reporter construct under standard conditions. The SOX9 reporter construct (a gift from Dr. Michael Underhill, University of British Columbia) has 4 repeats of the SOX9 binding site coupled to the mouse Col2a1 minimal promoter (−89 to +6) cloned upstream of a luciferase gene in the plasmid pGL4 (Promega) (Weston, Chandraratna et al. 2002). Changes in luciferase levels in transfected cultures is used as a read-out of SOX9 activity. The anti-SOX9 SiRNA previously used (or astrocytes from the SOX9 conditional knock out) is used as a positive control and the scrambled siRNA is used as a negative control for this screen. The screen is used to identify compounds that reduce the levels of luciferase activity relative to control wells. […]
Specifically, primary astrocytes obtained from newborn rats were cultured in 6-well dishes for 6 weeks in Advanced-DMEM with 10% FBS. […] Transfection efficiency was calculated by co-transfection with a control plasmid. […] Twenty-four hours after the TGF-β2 application the cells were lysed and luciferase activity was measured using the Luciferase Assay System (PROMEGA) (according to the manufacturer's protocol) and a luminometer.
Background: A reporter such as luciferase makes a cellular process visible.

[5] abbreviates: SOX9 knock-down in primary astrocytes.
The mark [6] stands for this setting: TGFβ2-treated primary astrocytes.
Setting [7] is: primary astrocytes, 12 hours after transfection, siRNA 150 pM.
Where [8] appears, read: TGFβ2 treatment alone, primary astrocytes.

In the case of “AAAGUUGUCGCUCCCACUGAAGUUU (listed as RNA, chemistry not given here) [anti-SOX9 siRNA, small interfering RNA against SOX9, used at 150 pM in primary astrocytes]”, in the data set with SOX9 [1] (setting [5]), the fibronectin gene expression entry is given as “did not decrease” and the laminin gene expression entry was “did not decrease”. Besides, in the data set on SOX9 [1] (setting [6]), the “reduction in SOX9 mRNA levels” value worked out at 87±13% and the “reduction in XT-I mRNA” value is recorded as 68±6.4%. Moreover, in the data set on SOX9 [1] (setting [7]), the “reduction in SOX9 mRNA levels” value stood at 75±12% and the “reduction in XT-I mRNA” value was determined as 71±5.5%.
Take “IL-6: cytokine (R and D systems) used to treat primary astrocytes”: in data set [2], the “XT-II mRNA” value is listed as “strong, concentration-dependent up-regulation”; the “SOX9 mRNA levels” value is on record as “significant increase”; the Fibronectin expression entry is listed as “similarly increased”; the Laminin expression entry is on record as “similarly increased”. For the same substance, the CSPG protein expression result in data set [3] is recorded as “increased expression”.
Turning to PDGF, in data set [2], the “XT-II mRNA” value was “strong, concentration-dependent up-regulation”; the “SOX9 mRNA levels” value is given as “significant increase”; the Fibronectin expression result is given as “similarly increased”; the Laminin expression result was “similarly increased”. In data set [3], the CSPG protein expression entry was “increased expression”.
With “bFGF: cytokine (Invitrogen) used to treat primary astrocytes”, the “XT-II mRNA” value in data set [2] is on record as “no effect”.
With “TGFβ2: cytokine (R and D systems) used to treat primary astrocytes”, in data set [2], the “XT-II mRNA” value is “strong, concentration-dependent up-regulation”; the “SOX9 mRNA levels” value was “significant increase”; the Fibronectin expression entry is given as “similarly increased”; the Laminin expression entry is recorded as “similarly increased”. Also, the CSPG protein expression result in data set [3] is recorded as “increased expression”. In the data set with SOX9 [1] (setting [8]), the “SOX9 mRNA levels” value is “increased” and the “XT-1 mRNA levels” value was “increased”. Moreover, the luciferase activity result in the data set on SOX9 [4] (SOX9 luciferase reporter construct following treatment (FIG. 10)) is listed as “increased”. In the data set with SOX9 [4] (TGF-β2 final concentration 10 nM, 24 hours, primary astrocytes from newborn rats cultured 6 weeks), the “increase in luciferase activity” value was approximately 2 fold.
